Source: US20200121604A1, “SOLID FOSMETPANTOTENATE FORMULATIONS” (Retrophin, Inc., priority 2017, published 2020)

Experiments:
[1] = Chemical stability of fosmetpantotenate with and without acetic acid, alone and with MCC, 30° C./65% RH, reverse-phase HPLC; assay type: physicochemical; conditions: weight percent; for Phenol (%): main degradant
Description: Fosmetpantotenate was prepared and purified as in Examples 1 (“with acetic acid”) and Example 28 (“without acid”). Flowability and stability were analyzed for the acetic acid-containing fosmetpantotenate and the “without acid” fosmetpantotenate, alone and when formulated with MCC.
For the MCC formulations, fosmetpantotenate was diluted 1:1 (w:w) with ethyl acetate (HPLC grade, EMD) to generate a solution of viscosity suitable for wet granulation. Porous MCC (Avicel® PH200) was sieved via 120 mesh (125 μm opening) to remove fine particles and then placed in a Freund-Vector GMX-LAB Micro high shear granulator (1 L stainless steel bowl). The impeller speed was kept at 125 rpm during the process. 40 g of 50 wt % fosmetpantotenate ethyl acetate solution (contains 20 g fosmetpantotenate) was added into 80 g substrate at approximately 8 g/min drop-wise via a glass transfer pipette to achieve a 20:80 fosmetpantotenate:MCC ratio (i.e., 20% drug loading by weight). The resulting materials were agitated for an additional 10 minutes followed by tray drying overnight at room temperature to facilitate removal of ethyl acetate.
For the stability analysis, samples of fosmetpantotenate were subdivided and transferred into separate 20 mL clear scintillation vials (about 1 g sample per vial). Closed vials were then placed individually into 5″×7″ foil pouches (CADPAK N-HD, WVTR 0.0005 g/100 in^2/day at 90% RH 40° C.). followed by heat sealing the pouches without desiccant inside. Fosmetpantotenate powder samples were weighed (3 g) and placed directly into the same foil pouches described above, and heat sealed without desiccant inside. Closed samples were stored at 30° C./65% RH and measured after 0, 2, 4, and 8 weeks.
Measurement of impurities was performed by reverse-phase HPLC, utilizing the methods in Table 10. Water:acetonitrile 95:5 (v:v) with 0.005% phosphoric acid was used to extract the API (fosmetpantotenate) from the granulation at concentration of 0.75 mg/mL on an active basis. The sample suspension was ultrasonicated for 10 minutes to ensure complete API extraction followed by filtration using 0.45 μm PTFE filters to remove insoluble materials (i.e., MCC in the granulation samples). The filtrates were then transferred to individual vials and analyzed by HPLC.

[2] = system: wild-type and PanK2-deficient IRM32 cells; assay: Half-life of Coenzyme A in cells treated with labeled fosmetpantotenate or pantothenic acid; assay type: cell-based
Description: The half-life of Coenzyme A (CoA) was determined for both wild-type and PanK2-deficient IRM32 cells.
Stable isotopically labeled pantothenic acid (vitamin B5) and fosmetpantotenate, a compound currently in a Phase 3 clinical trial for the treatment of […], were prepared. The PanK2-deficient cell line was treated with labeled fosmetpantotenate (100 μM) while the parental IRM32 (WT) line was treated with labeled pantothenic acid. After 24 h the media was changed to complete media and the cells were harvested at various time points. The fraction of labeled CoA, both free and total, with respect to time 0 was calculated to determine the half-life of CoA under each of these conditions.

[3] = reference substances; cited from earlier work
[4] = Accelerated stability of 10% drug loaded formulations, 25° C./60% RH, total related substances by HPLC; assay type: physicochemical; conditions: 10% drug loading
Description: Fosmetpantotenate was thinned with ethyl acetate (EtOAc) at a 1:1 weight/weight ratio, and then blended with each solid excipient using a mortar and pestle on the 0.1 g scale of fosmetpantotenate, i.e., 0.2 g 50% (fosmetpantotenate/EtOAc)+0.9 g solid. The resulting materials were dried overnight at room temperature in a HEPA hood to remove excess EtOAc.
The formulations were stored under accelerated stability conditions (25° C./60% relative humidity (RH)) for 4 weeks. Some samples were stored in “open” conditions, i.e., exposed to air; other samples were stored in closed containers. The amount of impurities was measured at beginning of storage (t=0), after 2 weeks of storage (t=2 weeks), and after 4 weeks of storage (t=4 weeks). The amount of impurities (total related substances, expressed as a percentage) was determined using the methods described in Example 26 below.
The amount of total impurities was determined via integration of HPLC peak areas within 3 days after the formulations were prepared and before beginning storage (time=0 weeks). The amount of total impurities was measured again after 2 weeks, 4 weeks, 6 weeks, 8 weeks, and 12 weeks of storage. Capsule samples for analysis were prepared by dissolving 5 capsules in a volumetric flask with H2O/ACN 50/50 (v/v) containing 0.1% (v/v) HCOOH. “Drug only” and granulation samples were prepared by adding the sample directly into a volumetric flask and diluting with H2O/ACN 50/50.

[5] = Chemical stability of formulations, 30° C. and 65% relative humidity, closed containers, 12 weeks, total impurities by HPLC; assay type: physicochemical
Description: A stability study was performed to assess the stability of fosmetpantotenate in the following formulations: 1 g fosmetpantotenate (“drug only”; containing approximately 10% acetic acid); 75 mg fosmetpantotenate EA capsules (10% ethyl acetate); 75 mg fosmetpantotenate LG-90 capsules (38% laurylglycol 90); fosmetpantotenate MCC granulation, as described in Example 2; and fosmetpantotenate mannitol granulation, as described in Example 3; and 25:75 fosmetpantotenate:HPMCAS-L Spray Dried Dispersion (SDD) granulation, as described in Example 24. Additionally, fosmetpantotenate without solid excipient or solvent (“drug only”) was stored closed in borosilicate glass vials. Formulations contained in soft gel capsules were stored in closed HDPE bottles, and solid fosmetpantotentate granulation formulations were stored in closed foil-foil packaging. Stability samples were stored at ca. −20° C. (control samples) and at 30° C. and 65% relative humidity in closed containers for 12 weeks.
The amount of total impurities was determined via integration of HPLC peak areas within 3 days after the formulations were prepared and before beginning storage (time=0 weeks). The amount of total impurities was measured again after 2 weeks, 4 weeks, 6 weeks, 8 weeks, and 12 weeks of storage. […]

## COC(=O)CCNC(=O)[C@H](O)C(C)(C)COP(=O)(N[C@@H](C)C(=O)OC)Oc1ccccc1 (some centres unmarked) [Fosmetpantotenate, no acid]
[1]; 30° C./65% RH closed, t = 2 wk
  Phenol (%): 0.20%
  Impurities, excluding phenol (%): 3.69%
  Total impurities (%): 4.44%
[1]; 30° C./65% RH closed, t = 4 wk
  Phenol (%): 0.42%
  Impurities, excluding phenol (%): 7.01%
  Total impurities (%): 8.54%
[1]; 30° C./65% RH closed, t = 8 wk
  Phenol (%): 1.62%
  Impurities, excluding phenol (%): 12.82%
  Total impurities (%): 17.73%
[1]; t = 0
  Phenol (%): 0.12%
  Impurities, excluding phenol (%): 2.28%
  Total impurities (%): 2.75%

## CC(C)(COP(=O)(O)OP(=O)(O)OC[C@H]1O[C@@H](n2cnc3c(N)ncnc32)[C@H](O)[C@@H]1OP(=O)(O)O)[C@@H](O)C(=O)NCCC(=O)NCCS [CoA, Coenzyme A]
[2]
  half-life of CoA, PanK2-deficient versus WT cells: somewhat shorter in PanK2-deficient cells than in WT cells

## O [Water]
[3]
  Viscosity (Cp): 1 Cp

## COC(=O)CCNC(=O)[C@H](O)C(C)(C)COP(=O)(N[C@@H](C)C(=O)OC)Oc1ccccc1 (stereo partly drawn) [fosmetpantotenate, methyl 3-((2R)-2-hydroxy-4-(((((S)-1-methoxy-1-oxopropan-2-yl)amino)(phenoxy)phosphoryl)oxy)-3,3-dimethylbutanamido)propanoate]
[4]; 25° C./60% RH, t = 2 weeks, Closed
  Total % Related Substances: 5.76%
[4]; 25° C./60% RH, t = 2 weeks, Open
  Total % Related Substances: 5.94%
[4]; 25° C./60% RH, t = 4 weeks, Closed
  Total % Related Substances: 6.39%
[4]; 25° C./60% RH, t = 4 weeks, Open
  Total % Related Substances: 6.29%
[4]; t = 0
  Total % Related Substances: 4.80%
[5]
  average amount of degradation per week: 2.6%
